Here are results for two compounds from US20210301038A1, “POLYSIALIC ACID AND DERIVATIVES THEREOF, PHARMACEUTICAL COMPOSITION AND METHOD OF PRODUCING POLYSIALIC ACID” (Medizinische Hochschule Hannover (MHH), priority 2018, published 2021).

Data set [1] has as its system NMDAR-EPSCs (GluN1/GluN2B receptors). The experiment in a line: Evoked NMDAR-EPSCs, whole-cell patch-clamp of layer V pyramidal neurons in sham- or endoNF-treated mPFC slices. As to conditions: endoNF-treated mPFC slices; DP1 10 μg/ml; DP5 1 μg/ml and 10 μg/ml. Format: cell-based, mouse. From the text:
Each mouse was quickly sacrificed by cervical dislocation. After decapitation, the brain was rapidly removed from the skull and placed in ice-cold artificial cerebrospinal fluid (aCSF) equilibrated with 95% O2/5% CO2, which was composed of the following (in mM): 250 sucrose, 24 NaHCO3, 25 glucose, 2.5 KCl, 1.25 NaH2PO4, 2 CaCl2, and 1.5 MgCl2 (osmolarity 345-350 mOsm/kg, pH 7.4). Using a VT1200S vibratome (Leica, Nussloch, Germany), coronal slices containing the prelimbic and infralimbic cortices (1.9-1.3 mm anterior to bregma) were cut 350 μm or 400 μm thick, for patch clamp and extracellular recordings, respectively, in the same sucrose-containing aCSF. Then, the slices were transferred to a slice holding chamber filled with recording aCSF (osmolarity 300-305 mOsm/kg, pH 7.4) that contained 120 mM NaCl instead of sucrose (Eckhardt et al., 2000) and was continuously gassed with 95% O2/5% CO2.
For endoNF treatment in C57BL/6J mice, slices were first allowed to recover for 20 min at room temperature (22-24° C.) in recording aCSF and were then placed in a 24-well plate to be incubated in 2 ml of aCSF without (sham) or with addition of endoNF (10 μg/ml) at 35° C. for 2 hours. The 24-well plate was installed in a water bath (ED, Julabo, Seelbach, Germany). For field excitatory postsynaptic potential (fEPSP) recordings in knockout and transgenic mice, mPFC slices were incubated in recording aCSF for >2 hours at room temperature before recordings. For patch-clamp recordings in knockout mice, slices were incubated first at 35° C. for 20 min and then at room temperature for >30 min before recordings started. The aCSF was continuously gassed with 95% O2/5% CO2 during all incubation steps and recordings.
For whole-cell patch-clamp recordings, layer V pyramidal neurons were visualized using a SliceScope Pro 6000 equipped with a 40× water-immersion objective and infrared differential interference contrast microscopy (Scientifica, Uckfield, UK). Pyramidal cells were identified by their triangular soma and long apical dendrites, and synaptically evoked excitatory postsynaptic currents (EPSCs) were recorded using patch pipettes (3-5 MQ) fabricated using borosilicate glass capillaries (wall thickness 0.315, length 100, outer diameter 1.5 mm, Hilgenberg) and a DMZ-Zeitz puller (Zeitz Instruments GmbH, Martinsried, Germany). The intracellular pipette solution contained the following (in mM): 140.7 Cs-methane-sulfonate, 5 NaCl, 1 MgCl2, 0.2 EGTA, 10 HEPES, 3 ATP-Mg, 0.3 Na-GTP, and 3.1 QX-314 (osmolarity 295 mOsm/kg, adjusted to pH 7.2 with CsOH). EPSCs were evoked by electrical pulses (0.2 ms) at 0.033 Hz via a glass pipette placed in layer II/III of the mPFC (identically to fEPSPs). Mixed EPSCs showing a fast AMPAR-mediated component and a slow NMDAR-mediated component were recorded at a −60 mV holding potential in whole-cell voltage-clamp mode in normal aCSF. The stimulation intensity was adjusted to evoke mixed EPSCs with amplitudes of approximately 300 pA. The slow NMDAR-mediated component of EPSCs was pharmacologically isolated at −60 mV in modified aCSF containing low Mg^2+ (0.1 mM) and high Ca^2+ (3.2 mM, for adjustment of divalent cation concentrations), the selective antagonist of α-amino-3-hydroxy-5-methyl-4-isoxazolepropionic acid (AMPA)/kainate receptors NBQX (10 μM), and the selective antagonist of γ-aminobutyric acid (GABA)B receptors CGP-55845 (2 μM) (Chen et al., 2003). The washout of Mg^2+ required at least 25 min. Recordings at a holding potential near the resting membrane potential allowed us to obtain stable NMDAR-EPSC recordings from pyramidal cells lasting for 1-1.5 hours. Series resistance (Rs, range 10-25 MΩ) was compensated (20-30%) and monitored continuously. Neurons in which Rs changed by more than 20% throughout the experiment were not included in the analysis. In voltage-clamp mode, membrane potential was not corrected for liquid junction potential. […]
On the technique in general: In patch-clamp work, channel activity is measured electrically.

The test system of data set [2] is C57BL/6J mice with intra-mPFC endoNF injection. The experiment in a line: Novel object recognition test before and after intra-mPFC endoNF injection. Format: in vivo, mouse. As to conditions: 30 min before encoding; sarcosine 600 mg/kg i.p. (d2); DP12 (d5) and DP1 (d6) 1 mg/kg intranasally. Here is the method: Guide cannulas were fabricated using stainless steel tubing with outer/inner diameter Ø 0.711/0.483 mm (Science Products, Germany). Dummy cannulas were made from entomological pins, size 2, Ø 0.41 mm (FST, Germany). Chronic implantation of cannulas into the mPFC in mice was performed as described previously for intrahippocampal injections (Kochlamazashvili et al., 2012; Senkov et al., 2015; Senkov et al., 2006).
Acute injection of endoNF in vivo was done under a short isoflurane anesthesia. For intra-mPFC injection, we used a digitally controlled infusion system (UltraMicroPump, UMP3, and Micro4 Controller, WPI, USA) fed with a 10 μl-Hamilton syringe and NanoFil 135 μm (35 GA) beveled needle. The thin (135 μm) part of the needle went into the mouse brain during injection, whereas its thick part (430 μm) fit perfectly in the guide cannula (inside 483 μm). Injections were performed as follows: 1) a mouse was anesthetized with 1-3% isoflurane as during implantation; 2) it was put into the stereotaxic frame; 3) the dummy cannula was gently removed from the left guide cannula; 4) a NanoFil injecting needle was carefully placed inside of the guide cannula and advanced further down until reaching the marker (made with a permanent pen at the needle shank (430 μm) to visualize the point when the needle should reach the surface of the brain coming out of the guide cannula (equal to the length of guide cannula); 5) once the marker was reached, a slow (10 μm increment) step dial was used to deepen the needle into the brain; 6) endoNF (2 μg/μl) or vehicle was injected with the following settings: 250 nl per site as deep as 1.5 and 2.25 mm from the brain surface (total injection volume per hemisphere 500 nl, injection rate of 3 nl/s); 7) after injection was complete (˜5 min), the needle was left in the injection site for another 5 min and then gently removed; 8) the dummy cannula was then put back to its place; 9) the same procedure was performed for the right hemisphere. The whole injection process took approximately 20-25 min under isoflurane anesthesia, and the mice recovered rather quickly, starting to move in approximately 2-3 min after being returned to their home cages. Complete recovery of a mouse after such short anesthesia usually occurs within 3-5 min. After injection, mice were returned to their animal facility. Behavior experiments started on the day after injection at approximately the same time, so that we could perform cognitive tests 24 hours after injection.
A white open field arena (50×50×30 cm) was used in the novel object recognition task. All behavior was video recorded and analyzed automatically by software (ANY-maze, version 4.99, Stoelting Co., Wood Dale, Ill.). […]

For a further data set, the system named is NMDAR-mediated currents. As to conditions: cultured hippocampal neurons; cited from earlier work.
Another data set has as its system 5×FAD mice. The experiment in a line: Recency test (increased difficulty) in 5×FAD mice. As to conditions: intranasal, 0.5 mg/kg DP12 or equimolar, 2 hours before test; 90 min intervals. Format: in vivo, mouse. Here is the method:
The recency test comprised of two encoding phases followed by a retrieval phase (modified from Nelson et al., 2011). The interval between the encoding phases was 1 h, and the interval between the second encoding phase and the retrieval phase was 10 min, except for experiments in 5×FAD mice when both intervals were 90 min to make the task more difficult. In the first encoding phase, animals were placed into the open field arena and allowed to explore a pair of identical objects for 10 min. Then, a different pair of identical objects was presented in the second encoding phase (10 min total exploration time). During the retrieval phase, two different objects, one object from each encoding phase, were placed into the apparatus and animals were given 10 min to explore them.
Animals were randomly assigned to treatment groups using a randomized block design to counterbalance differences in age. The time of the day when tests were performed for different animals was also counterbalanced between treatment groups using a randomized block design. All measurements and statistical analyses were performed performed blindly, i.e. the tubes containing drugs/vehicle were coded. Exploration was defined as the animal approaching the object at a distance of less than 2 cm. The animal climbing onto the object with both hind- and forelimbs was not considered as exploration. In the same trial, objects were counterbalanced, and between trials, the placements of novel and familiar objects were changed. The objects used in the novel object recognition test were not employed in the recency test. Novelty detection was evaluated by calculating the discrimination ratio as follows: [novel object time−familiar object time]/[novel object time+familiar object time]×100%. In the recency test, the discrimination ratio was calculated as follows: [least recent object time−most recent object time]/[least object time+most recent object time]×100%. Unreliable measurements (about 10%), when animals spent in total ≤10 s near to both objects, were excluded from analysis.
As the recency test was consistently used for analysis of DP12 effects in other mouse models, it was further investigated whether 13- to 14-month-old 5×FAD mice are impaired in this form of memory. In this series of experiments, the intervals between each session during recency test were increased to 90 min to increase the difficulty to recall the temporal order of the two objects shown in the arena (FIG. 12(A)). […] To verify whether DP12 or avDP10-9OAc may improve cognitive function in the 5×FAD model of AD, these compounds or a vehicle (H2O) were intranasally delivered in the same cohort of 5×FAD mice before multiple recency test sessions (separated by 4 day-interval). The numbers of mice in each treatment group during one session were counterbalanced and each mouse received in a random order both drugs and the vehicle. […] In contrast, vehicle-treated 5×FAD mice explored the two objects equally (FIG. 12(C)).

The test system of data set [3] is dissociated hippocampal cultures (primary neural cells). As to the kind of experiment: MTT assay of neural cell viability. The data set is classed as cell-based, mouse. As to conditions: 30 to 1000 nM, 48 hours, from 10th day in vitro; DP10 effect at 30, 100 and 300 nM. As for the experimental part:
Primary hippocampal cells were dissociated from embryonic mice on embryonic day 18. To prepare the primary neural cultures, pregnant C57/BL6J mice were sacrificed by cervical dislocation. Embryos were decapitated, and the hippocampi isolated from brains under sterile conditions and dissected. Enzymatic digestion by 0.25% trypsin/EDTA solution was followed by separation of the cells in serum-containing medium via trituration (10 passes, 1 ml pipette). The primary cells were seeded onto 96-well plates coated with 100 μg/ml poly-lysine and 20 μg/ml laminin. The plating density was 20,000 cells per well. First, 200 μl Dulbecco's modified Eagle's medium (DMEM) was applied per well (supplemented with 1% penicillin-streptomycin and 1% L-glutamine and 2% B27). After incubation for 2 h at 37° C./5% CO2, the medium was exchanged with the pre-warmed Neurobasal medium including 1% penicillin-streptomycin, 1% L-glutamine, and 2% B27. The cells—predominantly neurons and astrocytes—were incubated at 37° C. in 5% CO2 humidified atmosphere for 10 days before administration of reagents.
The assay was performed as described elsewhere with minor modifications (Khalid et al., 2018). Primary neural cells (see above) grown in a 96-well plate were exposed to drugs/vehicles for 48 h at 37° C./5% CO2. After aspiration of culture media, a washing was done with 100 μl phosphate buffered saline (PBS, pH=7.2). Then, PBS was completely removed, and 100 μl phenol red-free pre-warmed Neurobasal media and 50 μl MTT solution (3-(4,5-dimethylthiazol-2-yl)-2,5-diphenyltetrazolium bromide, 5 mg/ml; dissolved in PBS) were added to each well and plates were incubated for 4 h in an incubator. […] DMSO destroyed the cells and released the formazan, which was detected by optical density value at 560 nm, measured using a plate reader. Optical density values for wells containing cells were corrected by subtracting values measured in cell-free wells prepared and treated in the same way as wells containing control cells.

Turning to `CC(=O)N[C@H]1[C@H]([C@H](O)[C@H](O)CO)OC(O)(C(=O)O)C[C@@H]1O` (stereo partly drawn) [DP1, N-acetylneuraminic acid], the “effect on the amplitude of NMDAR-EPSCs” value in data set [1] is on record as “no effect”. The “novel object recognition after intra-mPFC endoNF injection” value in data set [2] is listed as “no effect”. Also, in the data set on NMDAR-mediated currents, the “inhibition of NMDAR-mediated currents” value is given as “do not inhibit”.

Turning to (α(2→8)Neu5Ac)10 [DP10], in the data set with 5×FAD mice, the “exploration of least recent versus most recent object in the retrieval phase” value is “preference for the least recently explored object” and the “object discrimination (discrimination ratio) compared to vehicle” value was “significantly better in object discrimination”. Further, the “effect on neural cell viability” value in data set [3] is “strong potentiating effect”.
